Assay: Organ distribution of ^225Ac complexes following intravenous injection in mice
Type: in vivo, C57BL/6 mice
Procedure: In Vivo Biodistribution of ^225Ac Complexes of Macropa and DOTA. All experiments were approved by the Institutional Animal Care Committee (IACC) of the University of British Columbia and were performed in accordance with the Canadian Council on Animal Care Guidelines. A total of 9 female C57BL/6 mice (6-8 weeks old, 20-25 g) were used for the biodistribution study of each radiometal complex, n=3 for each time point.
Macropa (100 μL of a 1 mg/mL solution in NH4OAc) was diluted with 387 μL of NH4OAc (1 M, pH 7), and an aliquot (203 μL) of ^225Ac(NO3)3 (˜157 kBq) was then added; the pH of this solution was adjusted to 6.5-7 by the addition of 1 M NaOH (210 μL, trace metal grade). After 5 min at ambient temperature, the reaction solution was analyzed by TLC (0.4 M pH 4 sodium citrate as the eluent), which confirmed >95% radiochemical yield. The reaction was allowed to proceed overnight, and the radiochemical yield was again confirmed to be >95% the following morning. At this time, mice were anesthetized by 2% isoflurane, and approximately 100 μL (10-15 kBq) of the [^225Ac(macropa)]^+ complex were injected into the tail vein of each mouse. After injection, mice were allowed to recover and roam freely in their cages, and were euthanized by CO2 inhalation at 15 min, 1 h, or 5 h (n=3 at each time point) post-injection. Blood was collected by cardiac puncture and placed into an appropriate test tube for scintillation counting. Tissues collected included heart, liver, kidneys, lungs, small intestine, large intestine, brain, bladder, spleen, stomach, pancreas, bone, thyroid, tail, urine, and feces. Tissues were weighed and then counted with a calibrated gamma counter (Packard, Cobra II model 5002) using three energy windows: 60-120 keV (window A), 180-260 keV (window B), and 400-480 keV (window C). Counting was performed both immediately after sacrifice and after 7 days; counts were decay corrected from the time of injection and then converted to the percentage of injected dose (% ID) per gram of tissue (% ID/g). […]
The biodistribution studies of [^225Ac(DOTA)]^− and ^225Ac(NO3)3 were carried out as described above for [^225Ac(macropa)]^+, with the following modifications. [^225Ac(DOTA)^− was prepared by adding ^225Ac(NO3)3 (338 μL, 1.1 MBq) to a solution of DOTA (100 μg, 20 mg/mL in H2O) in NH4OAc (467 μL, 0.15 M, pH 7). The pH of the solution was adjusted to 7 using NH4OAc (150 μL, 1 M, pH 7) and the solution was heated at 85° C. for 45 min. RCY >99% was confirmed by TLC as described above. [^225Ac(DOTA)]^− was diluted with saline to a final concentration of 0.05 MBq/100 μL, and 100 μL were injected into each mouse. ^225Ac(NO3)3 (˜58 μL, 0.4 MBq) was diluted and injected in the same manner as [^225Ac(DOTA)]^−. One mouse that was to be euthanized at the 5 h time point in the [^225Ac(DOTA)]^− study died shortly after injection. In the same manner, one mouse that was to be euthanized at the 1 h time point in the ^225Ac(NO3)3 study died.
The in vivo stability [^225Ac(macropa)]^+ was examined by comparing its biodistribution to those of ^225Ac(NO3)3 and [^225Ac(DOTA)]^−. C57BL/6 mice were injected via tail vein with 10-50 kBq of each radiometal complex and were sacrificed after 15 min, 1 h, or 5 h. The amount of ^225Ac retained in each organ was quantified by gamma counting and reported as the percent of injected dose per gram of tissue (% ID/g). The results of these studies are compiled in Tables 1-3. Inadequate stability of an ^225Ac complex leading to the loss of radioisotope in vivo is manifested by the accumulation of ^225Ac in the liver, spleen, and bone of mice.^[11,12,32] […] The biodistribution profile of [^225Ac(macropa)]^+ (FIG. 3B) differs markedly from that of ^225Ac(NO3)3. […] Its biodistribution profile was similar to that of [^225Ac(DOTA)]^− (FIG. 3C), which has been previously shown to retain ^225Ac^3+ in vivo.^[7]

[1] = 15 min post i.v. injection, energy window A (60-120 keV)
[2] = 15 min post i.v. injection, energy window B (180-260 keV)
[3] = 15 min post i.v. injection, energy window C (400-480 keV)
[4] = 1 h post i.v. injection, energy window A (60-120 keV)
[5] = 1 h post i.v. injection, energy window B (180-260 keV)
[6] = 1 h post i.v. injection, energy window C (400-480 keV)
[7] = 5 h post i.v. injection, energy window A (60-120 keV)
[8] = 5 h post i.v. injection, energy window B (180-260 keV)
[9] = 5 h post i.v. injection, energy window C (400-480 keV)
[10] = C57BL/6 mice, i.v., 15 min to 5 h

O=C([O-])c1cccc(CN2CCOCCOCCN(Cc3cccc(C(=O)[O-])n3)CCOCCOCC2)n1.[225Ac+3] [[^225Ac(macropa)]^+]
Organ distribution: bladder [1]: 46.74 % ID/g
Organ distribution: blood [1]: 5.11 % ID/g
Organ distribution: bone (femur + joint) [1]: 2.52 % ID/g
Organ distribution: brain [1]: 0.26 % ID/g
Organ distribution: feces [1]: 0.91 % ID/g
Organ distribution: heart [1]: 2.19 % ID/g
Organ distribution: kidneys [1]: 27.55 % ID/g
Organ distribution: large intestines [1]: 2.40 % ID/g
Organ distribution: liver [1]: 2.28 % ID/g
Organ distribution: lungs [1]: 5.98 % ID/g
Organ distribution: pancreas [1]: 1.46 % ID/g
Organ distribution: small intestines [1]: 2.64 % ID/g
Organ distribution: spleen [1]: 2.52 % ID/g
Organ distribution: stomach [1]: 2.97 % ID/g
Organ distribution: tail [1]: 8.84 % ID/g
Organ distribution: thyroids [1]: 28.23 % ID/g
Organ distribution: urine [1]: 1378.82 % ID/g
Organ distribution: bladder [2]: 47.64 % ID/g
Organ distribution: blood [2]: 5.23 % ID/g
Organ distribution: bone (femur + joint) [2]: 2.69 % ID/g
Organ distribution: brain [2]: 0.23 % ID/g
Organ distribution: feces [2]: 1.04 % ID/g
Organ distribution: heart [2]: 2.39 % ID/g
Organ distribution: kidneys [2]: 27.86 % ID/g
Organ distribution: large intestines [2]: 2.53 % ID/g
Organ distribution: liver [2]: 2.17 % ID/g
Organ distribution: lungs [2]: 5.83 % ID/g
Organ distribution: pancreas [2]: 1.63 % ID/g
Organ distribution: small intestines [2]: 2.59 % ID/g
Organ distribution: spleen [2]: 2.55 % ID/g
Organ distribution: stomach [2]: 3.29 % ID/g
Organ distribution: tail [2]: 9.39 % ID/g
Organ distribution: thyroids [2]: −2.22 % ID/g
Organ distribution: urine [2]: 1541.60 % ID/g
Organ distribution: bladder [3]: 64.68 % ID/g
Organ distribution: blood [3]: 6.49 % ID/g
Organ distribution: bone (femur + joint) [3]: 3.74 % ID/g
Organ distribution: brain [3]: 0.17 % ID/g
Organ distribution: feces [3]: 1.26 % ID/g
Organ distribution: heart [3]: 2.87 % ID/g
Organ distribution: kidneys [3]: 33.46 % ID/g
Organ distribution: large intestines [3]: 3.02 % ID/g
Organ distribution: liver [3]: 2.72 % ID/g
Organ distribution: lungs [3]: 7.55 % ID/g
Organ distribution: pancreas [3]: 3.00 % ID/g
Organ distribution: small intestines [3]: 3.46 % ID/g
Organ distribution: spleen [3]: 3.79 % ID/g
Organ distribution: stomach [3]: 3.45 % ID/g
Organ distribution: tail [3]: 11.75 % ID/g
Organ distribution: thyroids [3]: −6.46 % ID/g
Organ distribution: urine [3]: 2387.66 % ID/g
Organ distribution: bladder [4]: 6.23 % ID/g
Organ distribution: blood [4]: 0.40 % ID/g
Organ distribution: bone (femur + joint) [4]: 0.31 % ID/g
Organ distribution: brain [4]: 0.12 % ID/g
Organ distribution: feces [4]: 0.28 % ID/g
Organ distribution: heart [4]: 0.31 % ID/g
Organ distribution: kidneys [4]: 13.36 % ID/g
Organ distribution: large intestines [4]: 0.36 % ID/g
Organ distribution: liver [4]: 0.75 % ID/g
Organ distribution: lungs [4]: 0.51 % ID/g
Organ distribution: pancreas [4]: 0.19 % ID/g
Organ distribution: small intestines [4]: 1.10 % ID/g
Organ distribution: spleen [4]: 0.51 % ID/g
Organ distribution: stomach [4]: 0.41 % ID/g
Organ distribution: tail [4]: 1.82 % ID/g
Organ distribution: thyroids [4]: 3.18 % ID/g
Organ distribution: urine [4]: 489.11 % ID/g
Organ distribution: bladder [5]: 5.92 % ID/g
Organ distribution: blood [5]: 0.39 % ID/g
Organ distribution: bone (femur + joint) [5]: 0.17 % ID/g
Organ distribution: brain [5]: 0.12 % ID/g
Organ distribution: feces [5]: 0.27 % ID/g
Organ distribution: heart [5]: 0.20 % ID/g
Organ distribution: kidneys [5]: 12.97 % ID/g
Organ distribution: large intestines [5]: 0.22 % ID/g
Organ distribution: liver [5]: 0.70 % ID/g
Organ distribution: lungs [5]: 0.54 % ID/g
Organ distribution: pancreas [5]: 0.12 % ID/g
Organ distribution: small intestines [5]: 0.94 % ID/g
Organ distribution: spleen [5]: 0.23 % ID/g
Organ distribution: stomach [5]: 0.33 % ID/g
Organ distribution: tail [5]: 1.82 % ID/g
Organ distribution: thyroids [5]: 0.10 % ID/g
Organ distribution: urine [5]: 517.19 % ID/g
Organ distribution: bladder [6]: 9.00 % ID/g
Organ distribution: blood [6]: 0.54 % ID/g
Organ distribution: bone (femur + joint) [6]: 0.70 % ID/g
Organ distribution: brain [6]: 0.23 % ID/g
Organ distribution: feces [6]: 0.69 % ID/g
Organ distribution: heart [6]: 0.23 % ID/g
Organ distribution: kidneys [6]: 17.38 % ID/g
Organ distribution: large intestines [6]: 0.79 % ID/g
Organ distribution: liver [6]: 1.08 % ID/g
Organ distribution: lungs [6]: 0.84 % ID/g
Organ distribution: pancreas [6]: 0.43 % ID/g
Organ distribution: small intestines [6]: 1.62 % ID/g
Organ distribution: spleen [6]: 0.48 % ID/g
Organ distribution: stomach [6]: 0.17 % ID/g
Organ distribution: tail [6]: 2.57 % ID/g
Organ distribution: thyroids [6]: 8.34 % ID/g
Organ distribution: urine [6]: 641.63 % ID/g
Organ distribution: bladder [7]: 4.25 % ID/g
Organ distribution: blood [7]: 0.01 % ID/g
Organ distribution: bone (femur + joint) [7]: 0.05 % ID/g
Organ distribution: brain [7]: 0.02 % ID/g
Organ distribution: feces [7]: 3.46 % ID/g
Organ distribution: heart [7]: 0.10 % ID/g
Organ distribution: kidneys [7]: 0.74 % ID/g
Organ distribution: large intestines [7]: 0.49 % ID/g
Organ distribution: liver [7]: 0.39 % ID/g
Organ distribution: lungs [7]: 0.01 % ID/g
Organ distribution: pancreas [7]: 0.10 % ID/g
Organ distribution: small intestines [7]: 0.29 % ID/g
Organ distribution: spleen [7]: 0.11 % ID/g
Organ distribution: stomach [7]: 0.01 % ID/g
Organ distribution: tail [7]: 0.14 % ID/g
Organ distribution: thyroids [7]: 0.10 % ID/g
Organ distribution: urine [7]: 12.78 % ID/g
Organ distribution: bladder [8]: 3.69 % ID/g
Organ distribution: blood [8]: 0.00 % ID/g
Organ distribution: bone (femur + joint) [8]: 0.02 % ID/g
Organ distribution: brain [8]: −0.01 % ID/g
Organ distribution: feces [8]: 3.49 % ID/g
Organ distribution: heart [8]: −0.04 % ID/g
Organ distribution: kidneys [8]: 0.78 % ID/g
Organ distribution: large intestines [8]: 0.45 % ID/g
Organ distribution: liver [8]: 0.36 % ID/g
Organ distribution: lungs [8]: −0.05 % ID/g
Organ distribution: pancreas [8]: −0.12 % ID/g
Organ distribution: small intestines [8]: 0.29 % ID/g
Organ distribution: spleen [8]: 0.09 % ID/g
Organ distribution: stomach [8]: 0.04 % ID/g
Organ distribution: tail [8]: 0.13 % ID/g
Organ distribution: thyroids [8]: −6.94 % ID/g
Organ distribution: urine [8]: 13.51 % ID/g
Organ distribution: bladder [9]: 8.52 % ID/g
Organ distribution: blood [9]: 0.04 % ID/g
Organ distribution: bone (femur + joint) [9]: 0.08 % ID/g
Organ distribution: brain [9]: −0.01 % ID/g
Organ distribution: feces [9]: 5.27 % ID/g
Organ distribution: heart [9]: 0.28 % ID/g
Organ distribution: kidneys [9]: 1.07 % ID/g
Organ distribution: large intestines [9]: 0.68 % ID/g
Organ distribution: liver [9]: 0.55 % ID/g
Organ distribution: lungs [9]: 0.15 % ID/g
Organ distribution: pancreas [9]: 0.13 % ID/g
Organ distribution: small intestines [9]: 0.42 % ID/g
Organ distribution: spleen [9]: 0.43 % ID/g
Organ distribution: stomach [9]: 0.13 % ID/g
Organ distribution: tail [9]: 0.28 % ID/g
Organ distribution: thyroids [9]: 19.89 % ID/g
Organ distribution: urine [9]: 22.27 % ID/g
blood clearance and excretion (in words) [10]: rapidly cleared from mice
organ accumulation (in words) [10]: did not accumulate in any organ

Source: patent US20220016277A1, “MACROCYCLIC COMPLEXES OF RADIONUCLIDES AND THEIR USE IN RADIOTHERAPY OF CANCER” (Cornell University, priority 2018, published 2022)
